These results are taken from PubChem BioAssay (NCI).

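How tested: cells in 96-well plates exposed to compound for 48 hours at five concentrations. TGI: total growth inhibition.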

Among the test systems are 786-0 renal; EKVX NSCLC; HCC-2998 colon; HCT-15 colon; IGROV1 ovarian; KM12 colon; M14 melanoma; MDA-N; OVCAR-5 ovarian; OVCAR-8 ovarian; PC-3 prostate; RPMI-8226 leukemia; RXF 393 renal; SF-539 CNS; SK-MEL-2 melanoma; SK-MEL-28 melanoma; SN12C renal; T-47D breast; U251 CNS; UACC-62 melanoma.
Assay in all cases: NCI-60 cell line screen, 48 h

For the compound `Cn1c(N)c(C(N)=O)[nH]c1=S`, the TGI in the experiment on 786-0 renal, with EKVX NSCLC, with HCC-2998 colon, in the experiment on HCT-15 colon, in the experiment with IGROV1 ovarian and in the experiment on KM12 colon was greater than 100 µM throughout. For the same compound, the TGI in the experiment on M14 melanoma, in the experiment with MDA-N, with OVCAR-5 ovarian, in the experiment with OVCAR-8 ovarian, in the experiment on PC-3 prostate and with RPMI-8226 leukemia was greater than 100 µM each time. Moreover, the TGI in the experiment with RXF 393 renal, with SF-539 CNS, in the experiment with SK-MEL-2 melanoma, in the experiment with SK-MEL-28 melanoma, in the experiment on SN12C renal and in the experiment with T-47D breast was greater than 100 µM in each case. Moreover, the TGI in the experiment with U251 CNS and in the experiment on UACC-62 melanoma was greater than 100 µM in each case.

As for `CCCN1CC=C(c2cc(C(=O)OCC)[nH]c2-c2cc(C)no2)C1=O`, the TGI in the experiment with 786-0 renal, in the experiment on EKVX NSCLC, in the experiment on HCC-2998 colon, in the experiment on HCT-15 colon, with IGROV1 ovarian and in the experiment on KM12 colon was greater than 100 µM each time. For the same compound, the TGI in the experiment with M14 melanoma, in the experiment on MDA-N, in the experiment on OVCAR-5 ovarian, in the experiment on OVCAR-8 ovarian, in the experiment with PC-3 prostate and with RPMI-8226 leukemia was greater than 100 µM throughout. Also, the TGI in the experiment with RXF 393 renal, in the experiment on SF-539 CNS, with SK-MEL-2 melanoma, in the experiment on SK-MEL-28 melanoma, in the experiment on SN12C renal and in the experiment with T-47D breast was greater than 100 µM throughout. The TGI in the experiment with U251 CNS and in the experiment on UACC-62 melanoma was greater than 100 µM each time.

With `COc1cc(-c2cc(=O)c3c(OC)c(OC)c(OC)cc3o2)c(OC)c(OC)c1OC`, the TGI with 786-0 renal, in the experiment with EKVX NSCLC, with HCC-2998 colon, with HCT-15 colon, in the experiment on IGROV1 ovarian and in the experiment on KM12 colon was greater than 75 µM throughout. Moreover, the TGI in the experiment with M14 melanoma, with MDA-N, in the experiment on OVCAR-5 ovarian, in the experiment on OVCAR-8 ovarian, in the experiment on PC-3 prostate and with RPMI-8226 leukemia was greater than 75 µM throughout. For the same compound, the TGI in the experiment with RXF 393 renal, in the experiment on SF-539 CNS, in the experiment with SK-MEL-2 melanoma, with SK-MEL-28 melanoma, with SN12C renal and in the experiment with T-47D breast was greater than 75 µM throughout. Further, the TGI with U251 CNS and in the experiment on UACC-62 melanoma was greater than 75 µM throughout.

As to `O=c1[nH]cnc2c1sc1nc3ccccc3n12`, the TGI is greater than 100 µM in the experiment on 786-0 renal; greater than 100 µM with EKVX NSCLC; greater than 100 µM in the experiment with HCC-2998 colon; greater than 100 µM in the experiment with HCT-15 colon; greater than 100 µM with IGROV1 ovarian; 54.9 µM in the experiment on KM12 colon. Also, the TGI in the experiment with M14 melanoma, in the experiment with MDA-N, in the experiment with OVCAR-5 ovarian, with OVCAR-8 ovarian, with PC-3 prostate and in the experiment with RPMI-8226 leukemia was greater than 100 µM in each case. In addition, the TGI in the experiment with RXF 393 renal is 84.4 µM; in the experiment on SF-539 CNS, greater than 100 µM; in the experiment on SK-MEL-2 melanoma, greater than 100 µM; with SK-MEL-28 melanoma it was greater than 100 µM; with T-47D breast it was greater than 100 µM; in the experiment on U251 CNS, greater than 100 µM. The TGI in the experiment with UACC-62 melanoma was greater than 100 µM.

In the case of `C=C1[C@H](OC(=O)C(C)C)[C@]23CC4(O)[C@@H]5[C@@]6(C)CCC[C@]57C([C@@H]2C[C@@]1(O)[C@H](O)[C@@H]73)N4C6`, the TGI in the experiment with 786-0 renal was greater than 100 µM; with EKVX NSCLC it was greater than 100 µM; in the experiment with HCC-2998 colon, 72.3 µM; in the experiment with HCT-15 colon, greater than 100 µM; in the experiment on IGROV1 ovarian, greater than 100 µM; in the experiment on KM12 colon it was greater than 100 µM. For the same compound, the TGI with M14 melanoma, in the experiment with MDA-N, in the experiment with OVCAR-5 ovarian, with OVCAR-8 ovarian, in the experiment on PC-3 prostate and in the experiment with RPMI-8226 leukemia was greater than 100 µM throughout. For the same compound, the TGI with RXF 393 renal, in the experiment on SF-539 CNS, with SK-MEL-2 melanoma, in the experiment with SK-MEL-28 melanoma, with T-47D breast and in the experiment on U251 CNS was greater than 100 µM throughout. In addition, in the experiment with UACC-62 melanoma, the TGI was greater than 100 µM.

With `O=c1[nH]c2ccc(Cl)cc2c2oc(-c3ccccc3)nc12`, the TGI in the experiment on 786-0 renal was 30 µM; in the experiment on EKVX NSCLC, 89.8 µM; in the experiment on HCC-2998 colon, 79 µM; in the experiment on HCT-15 colon, greater than 100 µM; in the experiment on IGROV1 ovarian it was greater than 100 µM; in the experiment with KM12 colon, greater than 100 µM. For the same compound, the TGI in the experiment with M14 melanoma was greater than 100 µM; in the experiment with MDA-N, greater than 100 µM; with OVCAR-5 ovarian it was greater than 100 µM; in the experiment on OVCAR-8 ovarian, 24.8 µM; in the experiment on PC-3 prostate, greater than 100 µM; with RPMI-8226 leukemia, 64.7 µM. In addition, the TGI in the experiment on RXF 393 renal was 71.8 µM; in the experiment on SF-539 CNS, greater than 100 µM; in the experiment on SK-MEL-2 melanoma, 57.5 µM; with SN12C renal it was 41.8 µM; in the experiment on T-47D breast it was 50.4 µM; in the experiment with U251 CNS, 36.8 µM. Also, the TGI in the experiment on UACC-62 melanoma was greater than 100 µM.

For the compound `O=Cc1c2ccccc2n2ccc3c4ccccc4[nH]c3c12`, the TGI with 786-0 renal, in the experiment on EKVX NSCLC, in the experiment with HCC-2998 colon, with HCT-15 colon, with IGROV1 ovarian and in the experiment on KM12 colon was greater than 10 µM in each case. The TGI in the experiment on M14 melanoma, with MDA-N, in the experiment on OVCAR-5 ovarian, with OVCAR-8 ovarian, with PC-3 prostate and in the experiment on RPMI-8226 leukemia was greater than 10 µM in each case. The TGI in the experiment on RXF 393 renal, in the experiment on SF-539 CNS, in the experiment on SK-MEL-2 melanoma, with SN12C renal, with T-47D breast and in the experiment with U251 CNS was greater than 10 µM throughout. In the experiment on UACC-62 melanoma, this compound came in with a TGI greater than 10 µM.
